Measurements published in patent publication US11413260B2, “Use of 1,3-propanedisulfonic acid or pharmaceutically acceptable salts thereof for the treatment of sarcoidosis” (Icahn School of Medicine at Mount Sinai, priority 2014, dated 2022).

Key:
[1] = system: SAA-induced production of IL-TNF by THP-1 cells; test: SAA-stimulated inflammation in THP-1 cells: TNF production; type: cell-based; conditions: THP-1 cells treated with PMA and SAA
Source text: (§1) FIG. 1 summarizes the protocol employed to evaluate the effect of 1,3-propanedisulfonic acid (or a pharmaceutically acceptable salt thereof) on SAA (serum amyloid A) stimulated inflammation in THP-1 cells.
(§2) THP-1 cells were subjected to PMA (phorbol 12-myristate 13-acetate (EMD Cat. #524400)), SAA (serum amyloid A (PeroTech Cat. #300-13)), and 1,3-propanedisulfonic acid (KIACTA C933 (NRA610-01-CF)). The SAA treated cells were used as a positive control, with the SAA increasing the inflammatory mediators, TNF, IL-18 and IL-10. 1,3-propanedisulfonic acid is added to the cell cultures and the effect on TNF, IL-18 and IL-10 levels is measured.

sarcoidosis = test: Treatment of a patient diagnosed with sarcoidosis; type: in vivo
Protocol: A patient is diagnosed with sarcoidosis, and 1,3-propane disulfonic acid is administered to the patient.

[2] = system: SAA-induced production of IL-18 by THP-1 cells; test: SAA-stimulated inflammation in THP-1 cells: IL-18 production; type: cell-based; conditions: THP-1 cells treated with PMA and SAA
Source text: as §1, §2

[3] = system: SAA-induced production of IL-10 by THP-1 cells; test: SAA-stimulated inflammation in THP-1 cells: IL-10 production; type: cell-based; conditions: THP-1 cells treated with PMA and SAA
Source text: as §1, §2

With `O=S(=O)(O)CCCS(=O)(=O)O` [1,3-propanedisulfonic acid] the “concentration that inhibits SAA-induced production of IL-TNF” value [1] was no less than 1.25 mg/mL, the “effect on sarcoidosis symptoms” value (sarcoidosis) was “reduction and/or alleviation of sarcoidosis symptoms” and the “concentration that inhibits SAA-induced production of IL-18” value [2] was no less than 5 mg/mL. For the same compound, the “concentration that inhibits SAA-induced production of IL-10” value [3] was no less than 2.5 mg/mL.
